The source of these data is paper PMC3174232, “Identification of a Negative Allosteric Site on Human α4β2 and α3β4 Neuronal Nicotinic Acetylcholine Receptors” (PLoS ONE, 2011).

The nature of data set [1]: Solubility limit in functional assay. In kind it is physicochemical. Conditions: read-out: highest soluble test concentration.
The target in data set [2] is T1, hα4β2-T58K nAChRs (Homo sapiens, UniProt P17787+P43681, T84K).
T1 construct: Human nAChR α4 and β2 full-length cDNAs in the vector pSP64 (poly A); expressed in transfected cells; host or cells: HEK ts201 cells
The data set is described as follows: Calcium accumulation assay, HEK ts201 cells transiently expressing hα4β2 β2-T58K mutant nAChRs. Type of data set: cell-based. As for the experimental part:
(§1) Calcium accumulation assays were performed as described previously with slight modifications. Briefly, HEK ts201 cells, transiently expressing hα4β2WT nAChRs or hα4β2M nAChRs, were plated on 96-well plates at a density of 2.6×10^5 cells per well. Twenty-four hours after plating, the cells were washed and then incubated with fluo-4-AM for 30 minutes at 37°C followed by 30 minutes at 24°C. After incubation, cells were washed and fluorescence was measured at ∼0.7 second intervals using a fluid handling integrated fluorescence plate reader (Flex Station, Molecular Devices, Sunnyvale, CA). […] Functional responses were quantified by first calculating the net fluorescence changes (the difference between control sham-treated and control agonist-treated groups). […] Results were calculated from the number of observations (n) performed in triplicate. Curve fitting was performed by Prism software (GraphPad, San Diego, CA). EC50 values, IC50 values, and Hill coefficients were obtained by averaging values generated from each individual concentration-response curve. EC50 values and IC50 values were expressed as geometric means (95% confidence limits). Experimental values were compared using the t-test (p<0.005), as indicated.
(§2) Human nAChR α4 and β2 full-length cDNAs in the vector pSP64 (poly A) were obtained from Dr. Jon Lindstrom (University of Pennsylvania) and used as the template for mutagenesis (β2) and for transient expression (α4 and β2). A single mutation was made in the β2 subunit using the Quik Change Lightning Multi Site-Directed Mutagenesis Kit (Stratagene) following the manufacturers instructions. Primers were designed using the QuikChange Primer Design Program (Stratagene) and Oligo 4.0 (National Biosciences) and synthesized by Invitrogen. Primers were designed to replace the threonine residue at position 58 in the hβ2 subunit with a lysine found at the similar position in the hβ4 subunit. The following primer was designed to change the threonine (ACC) at position 58 in the β2 subunit to lysine (AAG): β2 mutant 5′-[…]-3′. The underlined nucleotides defined the mutation. Primers were also designed to replace the phenylalanine residue at position 118 in the hβ2 subunit with a leucine found at the similar position in the hβ4 subunit. The following primer was designed to change the phenylalanine (TTC) at position 118 in the β2 subunit to leucine (TTG): 5′-[…]-3′ and 5′- […]-3′. […] The mutant hβ2 cDNAs were subcloned into pcDNA 3.1+Zeo (Invitrogen). The wild type hα4 and hβ2 cDNAs were also subcloned into the pcDNA 3.1+ and pcDNA 3.1+ Zeo vectors respectively. All cDNA clones were completely sequenced using a 3730 DNA Analyzer (Applied Biosystems) at the Ohio State University Plant-Microbe Genomics Facility. DNAs used for transfection were purified using PureLink High Pure Mini or Midi Kits (Invitrogen). HEK ts201 cells (kind gift of Dr. Rene Anand, Ohio State University Department of Pharmacology) were transiently transfected with wild-type hα4 mutant hβ2 or wild-type hα4β2 cDNAs using Lipofectamine 2000 (Invitrogen) in 60 mm dishes. After 8 hours, the cells were replated into 96 well dishes for the intracellular calcium accumulation assays.

In data set [3] the test system is hα4β2 nAChRs. Conditions: introduction, low µM range; cited from earlier work.
The subject of data set [4] is human α3β4 nAChRs. The settings on record: tested at concentrations up to 100 µM; cited from earlier work.
Data set [5] has as its target T2, hα4β2WT nAChRs (Homo sapiens, UniProt P17787+P43681).
T2 construct: Human nAChR α4 and β2 full-length cDNAs in the vector pSP64 (poly A); expressed in transfected cells; host or cells: HEK ts201 cells
Description: Calcium accumulation assay, HEK ts201 cells transiently expressing wild-type hα4β2 nAChRs. In kind it is cell-based. As for the experimental part:
as §1, §2

For data set [6], the target named is T3, hα4β2-F118L nAChRs (Homo sapiens, UniProt P17787+P43681, F144L).
T3 construct: Human nAChR α4 and β2 full-length cDNAs in the vector pSP64 (poly A); expressed in transfected cells; host or cells: HEK ts201 cells
The data set is described as follows: Calcium accumulation assay, HEK ts201 cells transiently expressing hα4β2 β2-F118L mutant nAChRs. Type of data set: cell-based. On the procedure: as §1, §2

Data set [7] has as its target recombinant hα4β2 receptors. Set-up: method as in PMID 8996215, PMID 11044726, PMID 9454827. The settings on record: read-out: expt. potency, EC50, cited from earlier work.
Data set [8] has as its target recombinant hα3β4 receptors. Further details: method as in PMID 8996215, PMID 11044726, PMID 9454827. The settings on record: read-out: expt. potency, EC50, cited from earlier work.

Read-outs that look alike come from different tables or passages of the source.

T2 sequence (P43681 29-627 limits assumed): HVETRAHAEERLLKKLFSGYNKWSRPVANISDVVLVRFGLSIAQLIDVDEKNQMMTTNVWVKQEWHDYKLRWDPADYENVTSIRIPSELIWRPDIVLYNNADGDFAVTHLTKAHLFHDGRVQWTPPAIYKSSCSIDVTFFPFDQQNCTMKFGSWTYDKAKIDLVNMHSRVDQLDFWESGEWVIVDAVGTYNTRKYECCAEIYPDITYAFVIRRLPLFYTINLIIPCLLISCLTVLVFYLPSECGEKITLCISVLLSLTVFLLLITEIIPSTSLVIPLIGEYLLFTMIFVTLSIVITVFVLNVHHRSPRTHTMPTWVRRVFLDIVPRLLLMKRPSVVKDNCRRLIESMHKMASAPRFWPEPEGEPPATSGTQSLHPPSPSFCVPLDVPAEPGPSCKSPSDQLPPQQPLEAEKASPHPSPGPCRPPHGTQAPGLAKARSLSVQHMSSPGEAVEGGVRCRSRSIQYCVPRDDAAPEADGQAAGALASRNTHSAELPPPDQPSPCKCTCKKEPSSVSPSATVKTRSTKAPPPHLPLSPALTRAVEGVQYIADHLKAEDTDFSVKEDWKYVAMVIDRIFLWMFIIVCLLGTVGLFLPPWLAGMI
T2 sequence (P17787 26-502): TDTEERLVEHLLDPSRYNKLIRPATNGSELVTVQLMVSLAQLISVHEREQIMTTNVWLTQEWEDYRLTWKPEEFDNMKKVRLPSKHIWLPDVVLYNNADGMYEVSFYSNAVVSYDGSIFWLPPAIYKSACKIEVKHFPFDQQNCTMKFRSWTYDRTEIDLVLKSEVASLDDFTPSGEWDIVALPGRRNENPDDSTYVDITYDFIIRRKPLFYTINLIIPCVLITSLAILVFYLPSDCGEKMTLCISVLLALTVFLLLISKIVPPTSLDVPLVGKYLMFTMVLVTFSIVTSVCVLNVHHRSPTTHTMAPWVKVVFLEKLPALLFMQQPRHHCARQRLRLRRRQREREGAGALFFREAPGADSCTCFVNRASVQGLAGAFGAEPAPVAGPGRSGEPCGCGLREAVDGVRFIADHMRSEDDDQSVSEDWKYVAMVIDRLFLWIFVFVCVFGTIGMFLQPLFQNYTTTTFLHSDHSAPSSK
T3 sequence (P43681 27-627, stated change not applied): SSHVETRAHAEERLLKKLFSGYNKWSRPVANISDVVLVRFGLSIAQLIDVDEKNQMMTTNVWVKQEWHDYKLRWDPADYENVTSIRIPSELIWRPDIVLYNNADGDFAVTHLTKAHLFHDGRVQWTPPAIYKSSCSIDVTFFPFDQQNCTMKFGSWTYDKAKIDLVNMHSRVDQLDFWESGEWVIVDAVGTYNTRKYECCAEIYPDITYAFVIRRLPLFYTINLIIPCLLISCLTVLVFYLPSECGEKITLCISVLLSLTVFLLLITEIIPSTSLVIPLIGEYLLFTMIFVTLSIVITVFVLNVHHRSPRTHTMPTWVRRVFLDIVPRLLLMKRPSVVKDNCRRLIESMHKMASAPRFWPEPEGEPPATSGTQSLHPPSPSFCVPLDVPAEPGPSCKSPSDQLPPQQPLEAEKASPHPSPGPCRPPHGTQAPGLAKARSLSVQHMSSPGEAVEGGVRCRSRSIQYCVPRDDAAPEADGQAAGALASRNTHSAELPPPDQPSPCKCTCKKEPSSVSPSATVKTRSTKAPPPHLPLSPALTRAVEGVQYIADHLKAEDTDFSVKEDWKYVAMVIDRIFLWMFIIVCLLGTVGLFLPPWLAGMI
T3 sequence (P17787 26-502 F144L): as the sequence (P17787 26-502) above, with F119L counted along it
T1 sequence (P43681 27-627, stated change not applied): as the sequence (P43681 27-627, stated change not applied) above
T1 sequence (P17787 26-502 T84K): as the sequence (P17787 26-502) above, with T59K counted along it

For the compound `O=C(OCC1CCCN(CCCc2ccccc2)C1)c1ccccc1-c1ccccc1` (stereo not shown) [KAB-18], in data set [1], the solubility was at most 100 µM. The “n H, Hill coefficient” value was −1.0 in data set [2] (hα4β2-T58K nAChRs) and −1.2 in data set [5] (hα4β2-WT nAChRs). Further, the “decrease in potency, β2T58K mutant vs wild-type” value in data set [2] (ratio of IC50 71.8 µM (T58K) to 8.5 µM (WT)) was “eight-fold decrease”. Further, the IC50 in data set [2] (read-out: IC50) was 71.8 µM; in data set [5] (read-out: IC50) it was 8.5 µM; in data set [6] it was above 100 µM. Also, in data set [3], the “potency (inhibition of hα4β2 nAChRs)” value is listed as 10 µM. Besides, the “functional activity on human α3β4 nAChRs” value in data set [4] is reported as “no functional activity”. Further, in data set [6] (at concentrations up to 100 µM), the “inhibitory activity on F118L mutant” value is recorded as “loss of inhibitory activity”.

Turning to `CC(=O)OCC[N+](C)(C)C` [acetylcholine], the EC50 in data set [7] (hα4β2) was 100 µM; in data set [8] (hα3β4), 203 µM.

For `COc1cc2c3cc1Oc1cc(ccc1O)C[C@@H]1c4c(cc(OC)c(O)c4Oc4ccc(cc4)C[C@@H]3N(C)CC2)CC[N+]1(C)C` [d-tubocurarine], the IC50 in data set [2] turned out to be 6.2 µM; in data set [5] it was 6.3 µM; in data set [6], 6.5 µM. In addition, the “n H, Hill coefficient” value in data set [2] is −0.6; in data set [5], −1.0; in data set [6], −0.9.

As to `Clc1ccc(C2CC3CCC2N3)cn1` (stereo not shown) [epibatidine], the EC50 in data set [7] (hα4β2) was 0.043 µM; in data set [8] (hα3β4) it was 0.151 µM. Besides, the results for the “n H, Hill coefficient” value in data set [2] (hα4β2-T58K nAChRs), in data set [5] (hα4β2-WT nAChRs) and in data set [6] (hα4β2-F118L nAChRs) were 0.7, 0.9 and 0.8, respectively.

Turning to `CNC1(C)C2CCC(C2)C1(C)C` (stereo not shown) [mecamylamine], the “n H, Hill coefficient” value in data set [2] (hα4β2-T58K nAChRs) is recorded as −0.6; in data set [5] (hα4β2-WT nAChRs) it was −1.4; in data set [6] (hα4β2-F118L nAChRs), −1.1. Also, the IC50 in data set [2] (read-out: IC50) was found to be 0.2 µM; in data set [5] (read-out: IC50), 0.2 µM; in data set [6] (read-out: IC50) it was 0.4 µM.

For `CN1CCC[C@H]1c1cccnc1` [nicotine], the figures for the EC50 in data set [7] and in data set [8] were 3.5 µM and 40.3 µM, respectively.
